Results as given in ChEMBL document CHEMBL1201862, “PubChem BioAssay data set” (2004).
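All cell lines were grown in 96-well plates and treated with compound for 48 hours. GI50 is the concentration that inhibits growth by half.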 The source made the active and inactive calls. Cut-off read from the data, not from the text of the source: active = GI50 up to about 1.1 µM and inactive = higher.

Tests used:
Assay in all cases: inhibition of tumour cell growth, NCI panel, 48 h
[1] = system: OVCAR-3
[2] = system: COLO 205
[3] = system: Malme-3M
[4] = system: M19-MEL
[5] = system: OVCAR-5
[6] = system: HCC 2998
[7] = system: SW-620
[8] = system: SK-MEL-5
[9] = system: SNB-19
[10] = system: KM12
[11] = system: LOX IMVI
[12] = system: A498
[13] = system: UACC-62
[14] = system: EKVX
[15] = system: A549
[16] = system: CCRF-CEM

Structure (SMILES)	GI50 [1]	GI50 [2]	GI50 [3]	GI50 [4]	GI50 [5]	GI50 [6]	GI50 [7]	GI50 [8]	GI50 [9]	GI50 [10]	GI50 [11]	GI50 [12]	GI50 [13]	GI50 [14]	GI50 [15]	GI50 [16]
Cc1ccc(NC(=O)C2C(=O)N(c3ccc(C)cc3)C(=O)/C2=N\NC(N)=S)cc1 (stereo unspecified)	> 100 µM (inactive)	> 100 µM (inactive)	> 100 µM (inactive)	> 100 µM (inactive)	> 100 µM (inactive)	> 100 µM (inactive)	> 100 µM (inactive)	> 100 µM (inactive)	> 100 µM (inactive)	> 100 µM (inactive)	> 100 µM (inactive)	> 100 µM (inactive)	> 100 µM (inactive)	> 100 µM (inactive)	–	–
c1cnc2c(c1)-n1cccc1C1(CCOCC1)NN2	> 100 µM (inactive)	> 100 µM (inactive)	> 100 µM (inactive)	> 100 µM (inactive)	–	> 100 µM (inactive)	> 100 µM (inactive)	> 100 µM (inactive)	> 100 µM (inactive)	> 100 µM (inactive)	–	> 100 µM (inactive)	–	> 100 µM (inactive)	> 100 µM (inactive)	> 100 µM (inactive)
O=c1n(-c2ccccc2)c(=O)n2n1C1C=CC2C2C(C1)C2(Cl)Cl (stereo unspecified)	> 100 µM (inactive)	> 100 µM (inactive)	> 100 µM (inactive)	> 100 µM (inactive)	> 100 µM (inactive)	> 100 µM (inactive)	> 100 µM (inactive)	> 100 µM (inactive)	> 100 µM (inactive)	> 100 µM (inactive)	> 100 µM (inactive)	> 100 µM (inactive)	> 100 µM (inactive)	> 100 µM (inactive)	> 100 µM (inactive)	> 100 µM (inactive)
CSC[S+]([O-])C[C@H](CO)NC(=O)/C=C/c1c(C)[nH]c(=O)[nH]c1=O (stereo partly specified)	1.13 µM (inactive)	1.43 µM (inactive)	0.492 µM (active)	0.718 µM (active)	2.06 µM (inactive)	1.45 µM (inactive)	2.21 µM (inactive)	2.44 µM (inactive)	0.52 µM (active)	1.34 µM (inactive)	1.11 µM (active)	0.378 µM (active)	1.01 µM (active)	1.87 µM (inactive)	1.15 µM (inactive)	1.19 µM (inactive)
O=C(/C=C/c1ccccc1)Oc1cccc2cccnc12	2.96 µM (inactive)	14.5 µM (inactive)	3.8 µM (inactive)	13.2 µM (inactive)	14.7 µM (inactive)	43.2 µM (inactive)	3.82 µM (inactive)	7.74 µM (inactive)	31.4 µM (inactive)	8.39 µM (inactive)	9.64 µM (inactive)	–	5.47 µM (inactive)	6.65 µM (inactive)	12.9 µM (inactive)	3.18 µM (inactive)
C#C[C@]1(O)CCC2C3CCc4cc(Oc5nc(F)nc(-n6c(C)nc7cc8ccccc8cc76)n5)ccc4C3CCC21C (stereo partly specified)	50.1 µM (inactive)	20.6 µM (inactive)	47.3 µM (inactive)	37.1 µM (inactive)	–	53.5 µM (inactive)	35 µM (inactive)	35.6 µM (inactive)	53.1 µM (inactive)	32.7 µM (inactive)	40.1 µM (inactive)	–	29.2 µM (inactive)	9.35 µM (inactive)	41.5 µM (inactive)	36.9 µM (inactive)
O=c1c2cc(Br)ccc2[nH]c(=S)n1-c1ccccc1	> 100 µM (inactive)	> 100 µM (inactive)	> 100 µM (inactive)	> 100 µM (inactive)	> 100 µM (inactive)	> 100 µM (inactive)	> 100 µM (inactive)	> 100 µM (inactive)	> 100 µM (inactive)	> 100 µM (inactive)	> 100 µM (inactive)	> 100 µM (inactive)	> 100 µM (inactive)	> 100 µM (inactive)	> 100 µM (inactive)	> 100 µM (inactive)
CCCCCCCCCCCCC(Br)C(=O)SCCNC(=O)CCNC(=O)[C@@H](O)C(C)(C)COP(=O)(O)OP(=O)(O)OCC1OC(n2cnc3c(N)ncnc32)C(O)C1OP(=O)(O)O (stereo partly specified)	> 56.5 µM (inactive)	> 56.5 µM (inactive)	> 56.5 µM (inactive)	> 56.5 µM (inactive)	> 56.5 µM (inactive)	> 56.5 µM (inactive)	> 56.5 µM (inactive)	> 56.5 µM (inactive)	> 56.5 µM (inactive)	> 56.5 µM (inactive)	28.1 µM (inactive)	> 56.5 µM (inactive)	> 56.5 µM (inactive)	> 56.5 µM (inactive)	> 56.5 µM (inactive)	35.4 µM (inactive)
Fc1ccc2c(c1)cc1ccc3cccc4ccc2c1c34	> 100 µM (inactive)	> 100 µM (inactive)	> 100 µM (inactive)	> 100 µM (inactive)	> 100 µM (inactive)	> 100 µM (inactive)	> 100 µM (inactive)	> 100 µM (inactive)	> 100 µM (inactive)	> 100 µM (inactive)	> 100 µM (inactive)	> 100 µM (inactive)	> 100 µM (inactive)	5.02 µM (inactive)	> 100 µM (inactive)	> 100 µM (inactive)
